{"source": "patent US11976083B2", "about": "“Inhibitors of peptidylarginine deiminases” (Gilead Sciences, Inc., priority 2020, dated 2024)", "molecular_target": "T1, human PAD4 (Homo sapiens, UniProt Q9UM07)", "T1 construct": "human PAD4 (NM_012387), A2-P663, was PCR amplified; His-SUMO (N, cleaved yes); made in house; host or cells: E. coli BL21(DE3)", "T1 sequence (Q9UM07 2-663)": "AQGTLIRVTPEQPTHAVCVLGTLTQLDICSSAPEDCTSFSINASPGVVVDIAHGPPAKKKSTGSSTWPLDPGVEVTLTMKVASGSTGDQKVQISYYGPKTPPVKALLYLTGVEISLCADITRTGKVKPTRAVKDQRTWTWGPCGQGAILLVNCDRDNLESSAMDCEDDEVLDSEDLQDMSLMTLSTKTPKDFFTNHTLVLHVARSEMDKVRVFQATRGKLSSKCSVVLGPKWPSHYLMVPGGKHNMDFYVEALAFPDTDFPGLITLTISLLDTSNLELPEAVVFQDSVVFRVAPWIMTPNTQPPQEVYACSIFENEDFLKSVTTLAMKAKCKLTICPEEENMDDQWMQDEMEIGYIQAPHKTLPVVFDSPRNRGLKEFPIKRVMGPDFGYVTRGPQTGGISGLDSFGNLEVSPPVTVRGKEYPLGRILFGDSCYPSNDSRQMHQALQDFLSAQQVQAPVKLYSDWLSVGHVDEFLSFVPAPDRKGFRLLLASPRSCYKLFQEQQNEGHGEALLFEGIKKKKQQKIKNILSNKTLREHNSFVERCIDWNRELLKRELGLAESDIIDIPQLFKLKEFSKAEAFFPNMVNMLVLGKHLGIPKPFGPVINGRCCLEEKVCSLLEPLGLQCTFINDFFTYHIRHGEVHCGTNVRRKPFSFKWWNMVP", "assay": "In vitro PAD4 BAEE biochemical assay", "settings": "BAEE substrate 3 mM, 5 nM PAD4, 2 mM calcium chloride; geometric mean of multiple experiments", "summary_of_the_method": "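Recombinant human PAD4 (5 nM final) with 2 mM CaCl2 was preincubated with compound 30 min at 25 °C in MOPS buffer pH 7.6, then reacted with 3 mM BAEE for 2 h at 25 °C. After EDTA stop, released ammonia was detected by o-phthalaldehyde/DTT fluorescence (ex 405/em 535 nm); IC50 from four-parameter fit, geometric mean.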"}
{"smiles": "COc1cc(C(=O)N2CC[C@@H](OC)[C@@H](N)C2)cc2nc(-c3cc4ccc5nc4n3CCCCCc3cncc(F)c3C(=O)N[C@@H]5C)n(C)c12", "note": "[Example 650, (2~{R})-17-[5-[(3~{S}, 4~{R})-3-amino-4-methoxy-piperidine-1-carbonyl]-7-methoxy-1-methyl-benzimidazol-2-yl]-6-fluoro-2-methyl-3,8,16,22-tetrazatetracyclo[14.5.2.0^ {5,10}.0^{19,23}]tricosa-1(22),5,7,9,17,19(23),20-heptaen-4-one]", "values": [{"measurement": "IC50", "value": 59, "unit": "nM"}]}
{"smiles": "COc1cc(C(=O)N2CC[C@@H](OC)[C@@H](N)C2)cc2nc(-c3cc4ccc5nc4n3CCCCCc3cncc(Cl)c3C(=O)N[C@@H]5C)n(C)c12", "note": "[Example 651, (2~{R})-17-[5-[(3~{S}, 4~{R})-3-amino-4-methoxy-piperidine-1-carbonyl]-7-methoxy-1-methyl-benzimidazol-2-yl]-6-chloro-2-methyl-3,8,16,22-tetrazatetracyclo[14.5.2.0^ {5,10).0^{19,23}]tricosa-1(22),5,7,9,17,19(23),20-heptaen-4-one]", "values": [{"measurement": "IC50", "value": 59, "unit": "nM"}]}
{"smiles": "CO[C@@H]1CCN(C(=O)c2ccc3c(c2)nc(-c2cc4ccc5nc4n2CCCCCc2cc(Cl)ncc2C(=O)N[C@@H]5C)n3C2CC2)C[C@@H]1N", "note": "[Example 652, 17-[5-[(3~{S},4~{R})-3-amino-4-methoxy-piperidine-1-carbonyl]-1-cyclopropyl-benzimidazol-2-yl]-8-chloro-2-methyl-3,7,16,22-tetrazatetracyclo[14.5.2.0^ {5,10}.0^{19,23}] tricosa-1(22),5,7,9,17,19(23), 20-heptaen-4-one]", "values": [{"measurement": "IC50", "value": 42, "unit": "nM"}]}
{"smiles": "COc1cc(C(=O)N2CC[C@@H](OC)[C@@H](N)C2)cc2nc(-c3cc4ccc5nc4n3CCCCCc3cc(Cl)ncc3C(=O)N[C@@H]5C)n(C)c12", "note": "[Example 653, 17-[5-[(3~{S},4~{R})-3-amino-4-methoxy-piperidine-1-carbonyl]-7-methoxy-1-methyl-benzimidazol-2-yl]-8-chloro-2-methyl-3,7,16,22-tetrazatetracyclo[14.5.2.0^ {5,10}.0^{19,23}] tricosa-1(22),5,7,9,17,19(23), 20-heptaen-4-one]", "values": [{"measurement": "IC50", "value": 44, "unit": "nM"}]}
{"smiles": "COc1cc(C(=O)N2CC[C@@H](OC)[C@@H](N)C2)cc2nc(-c3cc4ccc5nc4n3CCCCCc3ccccc3C(=O)N(C)[C@@H]5C)n(C)c12", "note": "[Example 654, (2~{R})-17-[5-[(3~{S},4~{R})-3-amino-4-methoxy-piperidine-1-carbonyl]-7-methoxy-1-methyl-benzimidazol-2-yl]-2,3-dimethyl-3,16,22-triazatetracyclo[14.5.2.0^ {5,10).0^{19,23}] tricosa-1(22),5,7,9,17,19(23), 20-heptaen-4-one]", "values": [{"measurement": "IC50", "value": 51, "unit": "nM"}]}
{"smiles": "COc1cc(C(=O)N2CC[C@@H](OC)[C@@H](N)C2)cc2nc(-c3cc4ccc5nc4n3CCCCCc3ccnc(Cl)c3C(=O)N[C@@H]5C)n(C)c12", "note": "[Example 655, (2~{R})-17-[5-[(3~{S},4~{R})-3-amino-4-methoxy-piperidine-1-carbonyl]-7-methoxy-1-methyl-benzimidazol-2-yl]-6-chloro-2-methyl-3,7,16,22-tetrazatetracyclo[14.5.2.0^ {5,10}.0^{19,23}] tricosa-1(22),5,7,9,17,19(23), 20-heptaen-4-one]", "values": [{"measurement": "IC50", "value": 60, "unit": "nM"}]}
{"smiles": "COc1cc(C(=O)N2CC[C@@H](OC)[C@@H](N)C2)cc2nc(-c3cc4ccc5nc4n3CCCCCc3nccc(F)c3C(=O)N[C@@H]5C)n(C)c12", "note": "[Example 656, (2˜{R})-17-[5-[(3˜{S},4˜{R})-3-amino-4-methoxy-piperidine-1-carbonyl]-7-methoxy-1-methyl-benzimidazol-2-yl]-6-fluoro-2-methyl-3,9,16,22-tetrazatetracyclo[14.5.2.0^{5,10}.0^{19,23}]tricosa-1(22),5,7,9,17,19(23),20-heptaen-4-one]", "values": [{"measurement": "IC50", "value": 124, "unit": "nM"}]}
{"smiles": "COc1cc(C(=O)N2CCC[C@@H](N)[C@H]2C)cc2nc(-c3cc4ccc5nc4n3CCCCCc3cncc(F)c3C(=O)N[C@@H]5C)n(C)c12", "note": "[Example 657, (2~{R})-17-[5-[(2~{R},3~{R})-3-amino-2-methyl-piperidine-1-carbonyl]-7-methoxy-1-methyl-benzimidazol-2-yl]-6-fluoro-2-methyl-3,8,16,22-tetrazatetracyclo [14.5.2.0^{5,10}.0^{19,23}] tricosa-1(22),5,7,9,17,19(23), 20-heptaen-4-one]", "values": [{"measurement": "IC50", "value": 14, "unit": "nM"}]}
{"smiles": "COc1cc(C(=O)N2C[C@H]3CC[C@@H]2[C@@H]3N)cc2nc(-c3cc4ccc5nc4n3CCCCCc3cncc(F)c3C(=O)N[C@@H]5C)n(C)c12", "note": "[Example 658, (2~{R})-17-[5-[(1~{R},4~ {R},7~{R})-7-amino-2-azabicyclo[2.2.1]heptane-2-carbonyl]-7-methoxy-1-methyl-benzimidazol-2-yl]-6-fluoro-2-methyl-3,8,16,22-tetrazatetracyclo[14.5.2.0^ {5,10).0^{19,23}] tricosa-1(22),5,7,9,17,19(23), 20-heptaen-4-one]", "values": [{"measurement": "IC50", "value": 25, "unit": "nM"}]}
{"smiles": "[2H]C([2H])([2H])O[C@@H]1CCN(C(=O)c2cc(OC)c3c(c2)nc(-c2cc4ccc5nc4n2CCCCCc2cncc(F)c2C(=O)N[C@@H]5C)n3C)C[C@@H]1N", "note": "[Example 659, (2~{R})-17-[5-[(3~{S),4~{R})-3-amino-4-(trideuteriomethoxy)piperidine-1-carbonyl]-7-methoxy-1-methyl-benzimidazol-2-yl]-6-fluoro-2-methyl-3,8,16,22-tetrazatetracyclo[14.5.2.0^ {5,10}.0^{19,23}] tricosa-1(22),5,7,9,17,19(23), 20-heptaen-4-one]", "values": [{"measurement": "IC50", "value": 32, "unit": "nM"}]}
{"smiles": "COc1cc(C(=O)N2CC[C@@H](O)[C@@H](N)C2)cc2nc(-c3cc4ccc5nc4n3CCCCCc3cncc(F)c3C(=O)N[C@@H]5C)n(C)c12", "note": "[Example 660, (2~{R})-17-[5-[(3~{S},4~{R})-3-amino-4-hydroxy-piperidine-1-carbonyl]-7-methoxy-1-methyl-benzimidazol-2-yl]-6-fluoro-2-methyl-3,8,16,22-tetrazatetracyclo[14.5.2.0^ {5,10}.0^{19,23}] tricosa-1(22),5,7,9,17,19(23), 20-heptaen-4-one]", "values": [{"measurement": "IC50", "value": 16, "unit": "nM"}]}
{"smiles": "CO[C@@H]1CCN(C(=O)c2cc(F)c3c(c2)nc(-c2cc4ccc5nc4n2CCCCCc2cncc(Cl)c2C(=O)N[C@@H]5C)n3C2CC2)C[C@@H]1N", "note": "[Example 661, (2~{R})-17-[5-[(3~{S),4~ {R})-3-amino-4-methoxy-piperidine-1-carbonyl]-1-cyclopropyl-7-fluoro-benzimidazol-2-yl]-6-chloro-2-methyl-3,8,16,22-tetrazatetracyclo[14.5.2.0^ {5,10).0^{19,23}] tricosa-1(22),5,7,9,17,19(23), 20-heptaen-4-one]", "values": [{"measurement": "IC50", "value": 27, "unit": "nM"}]}
{"smiles": "CO[C@@H]1CCN(C(=O)c2cc(F)c3c(c2)nc(-c2cc4ccc5nc4n2CCCCCc2cncc(F)c2C(=O)N[C@@H]5C)n3C2CC2)C[C@@H]1N", "note": "[Example 662, (2~{R})-17-[5-[(3~{S},4~ {R})-3-amino-4-methoxy-piperidine-1-carbonyl]-1-cyclopropyl-7-fluoro-benzimidazol-2-yl]-6-fluoro-2-methyl-3,8,16,22-tetrazatetracyclo[14.5.2.0^ {5,10}.0^{19,23}] tricosa-1(22),5,7,9,17,19(23), 20-heptaen-4-one]", "values": [{"measurement": "IC50", "value": 32, "unit": "nM"}]}
